Source: ChEMBL document CHEMBL2046335, “Synthesis and discovery of N-carbonylpyrrolidine- or N-sulfonylpyrrolidine-containing uracil derivatives as potent human deoxyuridine triphosphatase inhibitors” (J Med Chem, 2012)

Experiments:
[1] = molecular target: T1, Deoxyuridine 5'-triphosphate nucleotidohydrolase, mitochondrial (Homo sapiens, UniProt P33316); assay: Inhibition of human dUTPase using [5-3H]dUTP as substrate after 15 mins by HPLC analysis
T1 sequence (P33316 whole entry): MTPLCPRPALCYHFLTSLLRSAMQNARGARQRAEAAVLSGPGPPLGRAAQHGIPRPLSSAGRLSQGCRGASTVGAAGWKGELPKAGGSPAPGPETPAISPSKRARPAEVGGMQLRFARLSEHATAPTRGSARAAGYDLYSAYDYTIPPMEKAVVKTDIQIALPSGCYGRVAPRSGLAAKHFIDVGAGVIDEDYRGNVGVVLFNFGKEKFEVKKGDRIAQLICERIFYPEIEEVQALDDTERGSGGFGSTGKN

[2] = Competitive inhibition of Escherichia coli dUTPase
[3] = Antiproliferative activity against human HeLaS3 cells after 72 hrs by crystal violet assay; type: functional, cell-based; settings: HeLa S3, 72 h
[4] = Potentiation of antiproliferative activity of FdUrd against human HeLaS3 cells assessed as reduction in FdUrd T/C value by half after 24 hrs by crystal violet assay; type: functional, cell-based; settings: HeLa S3, 24 h
[5] = molecular target: T1, Deoxyuridine 5'-triphosphate nucleotidohydrolase, mitochondrial; assay: Inhibition of human dUTPase

Compound | IC50 [1] [µM] | other results
O=c1ccn([C@H]2C[C@H](O)[C@@H](COP(=O)(O)NP(=O)(O)OP(=O)(O)O)O2)c(=O)[nH]1 | 15 | Ki [2]: 5 µM
O=c1ccn(CCCS(=O)(=O)N2CCC[C@@H]2C(O)(c2ccccc2)c2ccccc2)c(=O)[nH]1 | 0.32 | EC50 [3]: > 100 µM; EC50 [4]: 0.3 µM
O=C(CCCn1ccc(=O)[nH]c1=O)N1CCC[C@H]1C(O)(c1ccccc1)c1ccccc1 | 0.29 | EC50 [3]: > 100 µM; EC50 [4]: 0.27 µM
O=c1ccn([C@H]2C[C@H](O)[C@@H](COP(=O)(O)CP(=O)(O)OP(=O)(O)OCc3ccccc3)O2)c(=O)[nH]1 |  | Ki [5]: 0.3 µM
O=C(CCn1ccc(=O)[nH]c1=O)N(Cc1ccccc1)Cc1ccccc1 | > 30 | 
O=C(CCCn1ccc(=O)[nH]c1=O)NC(c1ccccc1)c1ccccc1 | > 30 | 
O=C(CCCn1ccc(=O)[nH]c1=O)NCC(c1ccccc1)c1ccccc1 | 16 | 
CN(CC(c1ccccc1)c1ccccc1)C(=O)CCCn1ccc(=O)[nH]c1=O | 1.3 | EC50 [3]: > 100 µM; EC50 [4]: 1.2 µM
CN(CC(O)(c1ccccc1)c1ccccc1)C(=O)CCCn1ccc(=O)[nH]c1=O | 1.1 | 
O=C(CCCn1ccc(=O)[nH]c1=O)N1CCC[C@@H]1C(O)(c1ccccc1)c1ccccc1 | 10 | 
O=C(CCCn1ccc(=O)[nH]c1=O)N1CCC[C@H]1C(O)(c1cccc(F)c1)c1cccc(F)c1 | 0.35 | 
O=C(CCCn1ccc(=O)[nH]c1=O)N1CCC[C@H]1C(O)(c1ccc(F)cc1)c1ccc(F)cc1 | 0.6 | 
O=C(CCCn1ccc(=O)[nH]c1=O)N1CCC[C@H]1C(O)(c1cccc(Cl)c1)c1cccc(Cl)c1 | 0.58 | 
O=C(CCCn1ccc(=O)[nH]c1=O)N1CCC[C@H]1C(O)(c1ccc(Cl)cc1)c1ccc(Cl)cc1 | > 1 | 
COc1ccccc1C(O)(c1ccccc1OC)[C@@H]1CCCN1C(=O)CCCn1ccc(=O)[nH]c1=O | > 1 | 
COc1cccc(C(O)(c2cccc(OC)c2)[C@@H]2CCCN2C(=O)CCCn2ccc(=O)[nH]c2=O)c1 | > 1 | 
COc1ccc(C(O)(c2ccc(OC)cc2)[C@@H]2CCCN2C(=O)CCCn2ccc(=O)[nH]c2=O)cc1 | > 1 | 
O=C(CCCn1ccc(=O)[nH]c1=O)N1CCC[C@H]1C(O)(c1cccc(-c2ccsc2)c1)c1cccc(-c2ccsc2)c1 | 0.23 | 
O=C(CCCn1ccc(=O)[nH]c1=O)N1CCC[C@H]1C(c1ccccc1)c1ccccc1 | 0.15 | 
O=C(CCn1ccc(=O)[nH]c1=O)N1CCC[C@H]1C(O)(c1ccccc1)c1ccccc1 | > 1 | 
O=c1ccn(CCCS(=O)(=O)N2CCC[C@H]2C(O)(c2ccccc2)c2ccccc2)c(=O)[nH]1 | 9.4 | 
O=c1ccn(CCCS(=O)(=O)N2CCC[C@@H]2C(O)(c2cccc(F)c2)c2cccc(F)c2)c(=O)[nH]1 | 0.28 | 
O=c1ccn(CCCS(=O)(=O)N2CCC[C@@H]2C(O)(c2ccc(F)cc2)c2ccc(F)cc2)c(=O)[nH]1 | 0.31 | 
COc1ccccc1C(O)(c1ccccc1OC)[C@H]1CCCN1S(=O)(=O)CCCn1ccc(=O)[nH]c1=O | > 1 | 
COc1cccc(C(O)(c2cccc(OC)c2)[C@H]2CCCN2S(=O)(=O)CCCn2ccc(=O)[nH]c2=O)c1 | > 1 | 

Second part, led by results:

IC50 [1] [µM] | Compound | other results
97 | CC(C)(C)NC(=O)CCCn1ccc(=O)[nH]c1=O | 
> 30 | CC(C)(C)CC(C)(C)NC(=O)CCn1ccc(=O)[nH]c1=O | 
22 | CCC(CC)(CC)NC(=O)CCn1ccc(=O)[nH]c1=O | 
> 30 | CC(C)(C)NC(=O)CCn1ccc(=O)[nH]c1=O | 
> 30 | O=C(CCn1ccc(=O)[nH]c1=O)NC(c1ccccc1)c1ccccc1 | 
> 30 | O=C(CCn1ccc(=O)[nH]c1=O)NCC(c1ccccc1)c1ccccc1 | 
> 30 | O=C(CCn1ccc(=O)[nH]c1=O)NCCC(c1ccccc1)c1ccccc1 | 
> 30 | O=C(CCn1ccc(=O)[nH]c1=O)N1CCC(Cc2ccccc2)CC1 | 
7.3 | CC(C)(NC(=O)CCn1ccc(=O)[nH]c1=O)C(O)(c1ccccc1)c1ccccc1 | 
> 30 | O=C(CCCn1ccc(=O)[nH]c1=O)Nc1ccccc1 | 
30 | CC(C)(C)CC(C)(C)NC(=O)CCCn1ccc(=O)[nH]c1=O | 
> 30 | O=C(CCCn1ccc(=O)[nH]c1=O)NCc1ccccc1 | 
> 30 | CC(C)(Cc1ccccc1)NC(=O)CCCn1ccc(=O)[nH]c1=O | 
> 30 | CC(C)(NC(=O)CCCn1ccc(=O)[nH]c1=O)c1ccccc1 | 
> 30 | CCC(CC)(CC)NC(=O)CCCn1ccc(=O)[nH]c1=O | 
2.5 | CC(C)(NC(=O)CCCn1ccc(=O)[nH]c1=O)C(O)(c1ccccc1)c1ccccc1 | EC50 [3]: > 100 µM; EC50 [4]: 3 µM
> 30 | CC(C)(Cc1ccc2ccccc2c1)NC(=O)CCCn1ccc(=O)[nH]c1=O | 
21 | CC(C)(CCc1ccccc1)NC(=O)CCCn1ccc(=O)[nH]c1=O | 
> 30 | CC(C)(CO)NC(=O)CCCn1ccc(=O)[nH]c1=O | 
